From paper PMC9050811 (RSC Advances, 2020) come the findings set out here.

Read-outs that look alike come from different tables or passages of the source. Bounds are passed on as bounds.

Assay [1] has as its system Staphylococcus aureus. In words: Antibacterial screening against S. aureus. It counts as cell-based. To be noted: read-out: S. aureus IC50.
The test system of assay [2] is Escherichia coli. The experiment in a line: Antibacterial screening against E. coli. It counts as cell-based. Particulars: read-out: E. coli IC50.
In assay [3] the test system is M. tuberculosis H37Ra-lux. In words: microbe, parasite or virus in culture. It counts as cell-based, Mycobacterium tuberculosis. Particulars: for IC50: read-out: M. tuberculosis H37Ra-lux IC50.
Where [4] appears, read: Mycobacterium tuberculosis, H37RA, 168 h.

What is called IC50 is the concentration needed to halve the response being measured. Regarding `O=C(Nc1ccc(N2CCCN(C(=O)c3cnccn3)CC2)nc1)c1ccc(Cl)cc1` [7d, 4-Chloro-N-(6-(4-(pyrazine-2-carbonyl)-1,4-diazepan-1-yl)pyridin-3-yl)benzamide], the IC50 in assay [1] (Staphylococcus aureus), in assay [2] and in assay [3] (setting [4]) was greater than 64 µM each time.
As to `O=C(Nc1ccc(N2CCCN(C(=O)c3cnccn3)CC2)nc1)c1ccccc1I` [7h, 2-Iodo-N-(6-(4-(pyrazine-2-carbonyl)-1,4-diazepan-1-yl)pyridin-3-yl)benzamide], the IC50 in assay [1] (Staphylococcus aureus), in assay [2] and in assay [3] (setting [4]) was greater than 64 µM throughout.
`COc1ccc(C(=O)Nc2ccc(N3CCN(C(=O)c4cnccn4)CC3)nc2)cc1` [6b, 4-Methoxy-N-(6-(4-(pyrazine-2-carbonyl)piperazin-1-yl)pyridin-3-yl)benzamide]: the IC50 in assay [1] (Staphylococcus aureus), in assay [2] and in assay [3] (setting [4]) was greater than 64 µM in each case.
Turning to `O=C(Nc1ccc(N2CCN(C(=O)c3cnccn3)CC2)nc1)c1ccc(Cl)cc1` [6d, 4-Chloro-N-(6-(4-(pyrazine-2-carbonyl)piperazin-1-yl)pyridin-3-yl)benzamide], the IC50 in assay [1] (Staphylococcus aureus), in assay [2] and in assay [3] (setting [4]) was greater than 64 µM each time.
With `O=C(Nc1ccc(N2CCCN(C(=O)c3cnccn3)CC2)nc1)c1cnccn1` [7k, N-(6-(4-(Pyrazine-2-carbonyl)-1,4-diazepan-1-yl)pyridin-3-yl)pyrazine-2-carboxamide], the IC50 in assay [1] (Staphylococcus aureus) and in assay [2] was greater than 64 µM each time.
With `O=C(Nc1ccc(N2CCCN(C(=O)c3cnccn3)CC2)nc1)c1ccc(Br)cc1` [7e, 4-Bromo-N-(6-(4-(pyrazine-2-carbonyl)-1,4-diazepan-1-yl)pyridin-3-yl)benzamide], the IC50 is greater than 64 µM in assay [1] (Staphylococcus aureus), greater than 64 µM in assay [2] and 2.12 µM in assay [3] (setting [4]).
With `O=C(Nc1ccc(N2CCN(C(=O)c3cnccn3)CC2)nc1)c1cnccn1` [6n, N-(6-(4-(Pyrazine-2-carbonyl)piperazin-1-yl)pyridin-3-yl)pyrazine-2-carboxamide], the IC50 in assay [1] (Staphylococcus aureus), in assay [2] and in assay [3] (setting [4]) was greater than 64 µM in each case. In assay [3], the “Anti-TB activity against M. tuberculosis H37Ra in words” value (“Anti-TB activity” for short) was “loss of activity”.
As for `NNC(=O)c1ccncc1` [Isoniazid, reference compound], the IC50 in assay [3] (setting [4]) is 0.013 µM.
`O=C(Nc1ccc(N2CCN(C(=O)c3cnccn3)CC2)nc1)c1cccc([N+](=O)[O-])c1` [6f, 3-Nitro-N-(6-(4-(pyrazine-2-carbonyl)piperazin-1-yl)pyridin-3-yl)benzamide]: the IC50 in assay [1] (Staphylococcus aureus), in assay [2] and in assay [3] (setting [4]) was greater than 64 µM in each case. For the same compound, the “Anti-TB activity” value in assay [3] was “inactive”.
For `O=C(Nc1ccc(N2CCN(C(=O)c3cnccn3)CC2)nc1)c1ccccc1I` [6i, 2-Iodo-N-(6-(4-(pyrazine-2-carbonyl)piperazin-1-yl)pyridin-3-yl)benzamide], the IC50 in assay [1] (Staphylococcus aureus), in assay [2] and in assay [3] (setting [4]) was greater than 64 µM each time.
Turning to `O=C(Nc1ccc(N2CCN(C(=O)c3cnccn3)CC2)nc1)c1ccc(Br)cc1Cl` [6k, 4-Bromo-2-chloro-N-(6-(4-(pyrazine-2-carbonyl)piperazin-1-yl)pyridin-3-yl)benzamide], the figures for the IC50 in assay [1] (Staphylococcus aureus), in assay [2] and in assay [3] (setting [4]) were greater than 64 µM, greater than 64 µM and 1.35 µM, respectively.
On to `CC(C)(C)c1ccc(C(=O)Nc2ccc(N3CCN(C(=O)c4cnccn4)CC3)nc2)cc1` [6c, 4-(tert-Butyl)-N-(6-(4-(pyrazine-2-carbonyl)piperazin-1-yl)pyridin-3-yl)benzamide], for which the IC50 in assay [1] (Staphylococcus aureus), in assay [2] and in assay [3] (setting [4]) was greater than 64 µM in each case.
Consider `O=C(Nc1ccc(N2CCCN(C(=O)c3cnccn3)CC2)nc1)c1ccncc1` [7l, N-(6-(4-(Pyrazine-2-carbonyl)-1,4-diazepan-1-yl)pyridin-3-yl)isonicotinamide], for which the IC50 in assay [1] (Staphylococcus aureus), in assay [2] and in assay [3] (setting [4]) was greater than 64 µM each time.
On to `O=C(Nc1ccc(N2CCN(C(=O)c3cnccn3)CC2)nc1)c1ccncc1` [6m, N-(6-(4-(Pyrazine-2-carbonyl)piperazin-1-yl)pyridin-3-yl)isonicotinamide], for which the IC50 in assay [1] (Staphylococcus aureus), in assay [2] and in assay [3] (setting [4]) was greater than 64 µM throughout. Besides, the “Anti-TB activity” value in assay [3] is “loss of activity”.
With `O=C(Nc1ccc(N2CCN(C(=O)c3cnccn3)CC2)nc1)c1ccc(Cl)cc1Cl` [6l, 2,4-Dichloro-N-(6-(4-(pyrazine-2-carbonyl)piperazin-1-yl)pyridin-3-yl)benzamide], the IC50 in assay [1] (Staphylococcus aureus), in assay [2] and in assay [3] (setting [4]) was greater than 64 µM in each case. Further, the “Anti-TB activity” value in assay [3] is “inactive”.
Take `C[C@H]1c2cccc(O)c2C(O)=C2C(=O)[C@]3(O)C(O)=C(C(N)=O)C(=O)[C@@H](N(C)C)[C@@H]3[C@@H](O)[C@@H]21` [Doxycyclin, reference compound]: the IC50 in assay [1] is 0.09 µM.
In the case of `CC(C)(C)c1ccc(C(=O)Nc2ccc(N3CCCN(C(=O)c4cnccn4)CC3)nc2)cc1` [7c, 4-(tert-Butyl)-N-(6-(4-(pyrazine-2-carbonyl)-1,4-diazepan-1-yl)pyridin-3-yl)benzamide], the IC50 in assay [1] (Staphylococcus aureus), in assay [2] and in assay [3] (setting [4]) was greater than 64 µM in each case.
By IC90 is commonly meant the point of the concentration-response curve where the effect stands at 90%. In the case of `O=C(Nc1ccc(N2CCN(C(=O)c3cnccn3)CC2)nc1)c1c(Cl)cccc1Br` [6j, 2-Bromo-6-chloro-N-(6-(4-(pyrazine-2-carbonyl)piperazin-1-yl)pyridin-3-yl)benzamide], the IC50 in assay [1] (Staphylococcus aureus) is greater than 64 µM; in assay [2], greater than 64 µM; in assay [3] (setting [4]), 1.82 µM; in assay [3], 2.14 µM. Also, the 90% effect concentration (IC90) in assay [3] (read-out: M. tuberculosis H37Ra-lux IC90) was 3.94 µM.
For `O=C(Nc1ccc(N2CCN(C(=O)c3cnccn3)CC2)nc1)c1ccc(Br)cc1` [6e, 4-Bromo-N-(6-(4-(pyrazine-2-carbonyl)piperazin-1-yl)pyridin-3-yl)benzamide], the IC50 was greater than 64 µM in assay [1] (Staphylococcus aureus), greater than 64 µM in assay [2] and 2.18 µM in assay [3] (setting [4]).
On to `O=C(Nc1ccc(N2CCCN(C(=O)c3cnccn3)CC2)nc1)c1ccc(Br)cc1Cl` [7i, 4-Bromo-2-chloro-N-(6-(4-(pyrazine-2-carbonyl)-1,4-diazepan-1-yl)pyridin-3-yl)benzamide], for which the IC50 in assay [1] (Staphylococcus aureus), in assay [2] and in assay [3] (setting [4]) was greater than 64 µM each time.
For the compound `O=C(Nc1ccc(N2CCN(C(=O)c3cnccn3)CC2)nc1)c1ccccc1` [6a, N-(6-(4-(Pyrazine-2-carbonyl)piperazin-1-yl)pyridin-3-yl)benzamide], the IC50 in assay [1] (Staphylococcus aureus) was greater than 64 µM; in assay [2], greater than 64 µM; in assay [3] (setting [4]), 1.46 µM.
Consider `O=C(Nc1ccc(N2CCCN(C(=O)c3cnccn3)CC2)nc1)c1ccc(Cl)cc1Cl` [7j, 2,4-Dichloro-N-(6-(4-(pyrazine-2-carbonyl)-1,4-diazepan-1-yl)pyridin-3-yl)benzamide], for which the IC50 in assay [1] (Staphylococcus aureus), in assay [2] and in assay [3] (setting [4]) was greater than 64 µM each time.
For `CCn1cc(C(=O)O)c(=O)c2cc(F)c(N3CCNCC3)cc21` [Norfloxacin, reference compound], the IC50 in assay [2] is 0.38 µM.
